Legend:
DLD1 [1] = test: Effect of drug incubation time on biological activity, MTT, DLD1; type: cell-based; settings: DLD1 (significant NQ01 activity)
Protocol: (§1) Cell Viability Determination: Popular MTT method (Archives of Biochemistry and Biophysics, 1993, 303: 474-482) was used to screen the in vitro effects of the invented drugs. Briefly, 5000 to 10000 cells were inoculated per well in a 96-well plate. After overnight incubation, drug was added to the wells at final concentration of 10 μM, […], 2.5 μM, 1.25 μM, or 1 μM, 0.75 μM, 0.5 μM and 0.25 μM in complete culture medium. Each dose level covered 4 equivalent wells. After 48 hour incubation, one tenth volume of 5 mg/mL MTT (thiazolyl blue tetrazolium bromide, Sigma-Aldrich) stock solution was added, and incubation was continued for 2 hours. Then medium was removed and 100 μL of isopropanol solution comprising 86% isopropanol, 4% aqueous 1 N HCl and 10% aqueous SDS solution (10% in concentration) was added. The absorbance of each well at 570 nm wavelength was measured by a micro-plate reader after gentle shaking for 20 minutes. Drug concentrations of 50% cell viability (IC50) were calculated by LOGIT method.
(§2) Effect of Drug Incubation Time on the Biological Activities of Compound XIII (FIG. 7): MTT assay was used for this experiment. Same procedure as described in “Cell Viability Determination” section. Briefly, cancer cells were inoculated on 96 well culture plates. […] The viability of cells at each well was read out using MTT method.

DLD1 [2] = test: Effect of NQ01 inhibitor (dicumarol) on biological activity, MTT, DLD1; type: cell-based; settings: DLD1 (significant NQ01 enzymatic activity); dicumarol 40 μM; 48 hr
Protocol: as §1
(§3) Effect of NQ01 Inhibitor (Dicumarol) on the Biological Activities of 2-acetyl-4,9-diacetoxy-naphtho[2,3-b]furan and Compound XIII (Part B and C of FIG. 4):MTT assay was used for this experiment. Same procedure as described in “Cell Viability Determination” section. […] The viability of cells at each well was read out after 48 hr incubation in cell culture incubator.

H1299 = test: Effect of drug incubation time on biological activity, MTT, H1299; type: cell-based; settings: H1299 (no NQ01 activity)
Protocol: as §1, §2

Panc 1 = test: Effect of drug incubation time on biological activity, MTT, Panc 1; type: cell-based; settings: Panc 1 (no NQ01 activity)
Protocol: as §1, §2

Panc-1 = test: Effect of NQ01 inhibitor (dicumarol) on biological activity, MTT, Panc-1; type: cell-based; settings: Panc-1 (no significant NQ01 enzymatic activity); dicumarol 40 μM; 48 hr
Protocol: as §1, §3

[3] = Metabolism in biological fluid (human whole blood, cancer cell lysate, liver microsomes, mouse oral uptake), HPLC; type: in vitro ADME; settings: liver microsomes or mouse oral uptake system, 20 μM, 37° C.
Protocol: Second, a major metabolite found after incubation of compound I, III, IV, VI or XIII in biological fluid, such as human whole blood, or cancer cell lysate, or liver microsomes, or mouse oral uptake system, is compound XII (FIG. 3). Similarly, a major metabolite found after incubation of compound V, VII or XIV in biological fluid is 2-(1-hydroxy-n-propyl)-naphtho[2,3-b]furan-4,9-dione (data not shown). Reduction of the position 2 substituent carbonyl group is part of quinone redox reaction as evidenced by the β-lapachone effect on the formation of compound XII in the compound XIII incubation mixture of human whole blood (part D of FIG. 3). The possible reaction mechanism is proposed as shown in scheme 7, in which the two electron reduction could be NQ01 catalyzed reduction or two successive cytochrome b5 reductase or p450 reductase catalyzed reaction. As substrate of these enzymes, β-lapachone could compete for the two electron or single electron reaction and thus reduced formation of the metabolism product.
Crystalline or amorphous solid of compound was mixed with excipient and suspended in 0.5% carboxymethylcellulose (CMC) solution in a mortar. Then the mixture was orally administered into ICR mouse at the predetermined dosage. At the predetermined time point, blood was drawn from the mouse and stored in the vial containing heparin. The blood samples were centrifuged at 6,000 rpm for 10 min, and plasmas were separated. To each plasma sample, 9 times volume of acetonitrile/methyl trifluoromethanesulfonate (1000:1) or acetonitrile/concentrated HCl (1000:1) was added. The resulting mixtures were vortexed and incubated in dry ice for 30 minutes or in −20° C. freezer for 3 hours, then centrifuged, and supernatants were separated for HPLC analysis using gradient B.
The biological systems for in vitro metabolism study include: human whole blood stabilized with sodium citrate; cancer cell lysate (obtained using freeze-thaw method, 10 mg/ml in protein concentration for use); liver microsomes with NADPH generation system (prepared according to the protocol provided by iPhase Pharma, Beijing, China);
10 mM of a compound of formula I or its analog or compound XIII in DMSO (however, compound VI was in DMF) was added into the biological system to a final concentration of 20 μM. The mixtures were incubated at 37° C. for predetermined time. To each sample, then 9 times volume of acetonitrile was added. The resulting mixtures were vortexed and incubated in dry ice for 30 minutes or in −20° C. freezer for 3 hours, then centrifuged, and supernatants were separated for HPLC analysis using gradient B.

A549 = test: Effect of drug incubation time on biological activity, MTT, A549; type: cell-based; settings: A549 (significant NQ01 activity)
Protocol: as §1, §2

CC(=O)c1cc2c(o1)C(=O)c1ccccc1C2=O [compound XIII, 2-acetyl-naphtho[2,3-b]furan-4,9-dione]
Cell growth inhibition, full time treatment versus 4 hour treatment (DLD1 [1]): made no significant difference in cell growth inhibition
Dicumarol effect on anticancer activity (DLD1 [2]): dicumarol attenuates anticancer activities
Cell growth inhibition, full time treatment versus 4 hour treatment (H1299): full time treatment with compound XIII caused much higher cell growth inhibition than 4 hour treatment
Cell growth inhibition, full time treatment versus 4 hour treatment (Panc 1): full time treatment with compound XIII caused much higher cell growth inhibition than 4 hour treatment
Dicumarol effect on anticancer activity (Panc-1): dicumarol showed little effect
Major metabolite found after incubation in biological fluid [3]: compound XII
Cell growth inhibition, full time treatment versus 4 hour treatment (A549): made no significant difference in cell growth inhibition

Reference: patent publication US9150530B2, “Esters of 4, 9-dihydroxy-naphtho [2, 3-b] furans for disease therapies” (Zhoushan Haizhongzhou Xinsheng Pharmaceuticals Co., Ltd., priority 2011, dated 2015)
